The values that follow come from patent publication US20250340837A1, “CELLS” (University of Geneva, priority 2022, published 2025).

One test has as its system C57Bl/6 ANPGs. Description: Stemness reprogramming screen with pharmacological modulators plus CHIR99021. Type of test: cell-based, mouse. The conditions noted are these: 30 days, with CHIR99021 3 μM.
The next test deals with C57Bl/6 otic progenitors. Kind of test: Stemness reprogramming and regeneration in hair cell progenitors. Type of test: cell-based, mouse. To be noted: 30 days, with CHIR99021 3 μM.
Test [1] has as its system mouse spiral ganglion explants. Kind of test: Live Ca2+ imaging in mouse spiral ganglion explants. Type of test: cell-based. An excerpt: (§1) To further explore the excitatory function of differentiated phoenix SGCs, Ca2+ mobilization was studied in response to several physiological stimuli, namely glutamate, ATP, and kainate (FIG. 4). […] Ionomycin, an ionophore facilitating the transport of divalent cations across cell membranes, and thapsigargin, inhibiting the SERCA pump and therefore the transfer of Ca^2+ toward endoplasmic reticulum, were used as positive controls (FIG. 4D). The excitatory pattern of phoenix SGCs was also compared with human fetal sphere-derived ones and mouse spiral ganglion explants using live Ca^2+ imaging. […] Therefore, at any passage and following differentiation, phoenix auditory SGCs resemble the auditory neuron physiology.

The test system of the next test is phoenix auditory neurons. Description: Induced Ca2+ cytosolic release (FLUO-8) in differentiated phoenix auditory neurons. It counts as cell-based, mouse. The conditions noted are these: phoenix auditory neurons after 7 days of differentiation. As for the experimental part:
(A-C) Kinetics of Ca^2+ transients induced by (A) Glutamate (higher trace for the higher concentration), (B) ATP (higher trace for the higher concentration), (C) Kainate in phoenix auditory neurons after 7 days of differentiation. Phoenix auditory neurons were loaded with Ca^2+ sensitive ratiometric probe (FLUO-8) and stimulated with increasing concentrations of glutamate ([…]), ATP (0.005-10 μM) or kainate (0.02-50 μM). (D) Dose response curves were extracted from the max-min amplitude values, allowing the determination of an EC50 value (in order of highest to lowest effect: Ionomycin, ATP, Glutamate, Thapsigargin and Kainate (no effect for Kainate). (E). Ionomycin and Thapsigargin were used as positive control. Data represent the average+/−SEM of 3 independent experiments.
A total of 32,000 cells/well were differentiated to auditory neurons on a 96-well plate coated with Matrigel, as previously described (Rousset et al., 2020). Differentiated cells were loaded with FLUO-8 (Interchim), according to the manufacturer's protocol. After an incubation period of typically 45 min at 37° C. with the inducing agent or control, the induced cytosolic calcium release was assessed in a FDSS/pCELL Functional Drug Screening System (Hamamatsu). The neuronal kinetics of calcium release was followed over about 10 min following treatment, with one measure every 0.5 s.
as §1
Further, the impact of BDNF and NT-3 alone or in combination on phoenix auditory neurons' glutamatergic function was assessed. Phoenix neuroprogenitors were plated on poly-ornithine and laminin coated 96 well plates and differentiated for 7 days with or without BDNF and NT-3 alone or in combination. To assess effect of neurotrophins, the auditory neuron were stimulated twice with glutamate: first with 10 μM (EC90) and 10 min later with 100 μM, eliciting a maximal glutamatergic response (FIG. 15A). Traces show the Ca2+ mobilization kinetics with 50 ng/mLNT-3+25 ng/mL BDNF (top light curve) or without neurotrophins (bottom dark curve) upon glutamate stimulation as recorded with Ca2+ sensitive ratiometric probe (FLUO-8). Arrows show the max-min amplitude of the response following the first (10 μM) or the second (100 μM) glutamate stimulation. Heatmaps showing the effect of BDNF and NT-3 alone or in combination on Ca2+ release (min-max amplitude) induced by 10 μM glutamate (FIG. 15B) and 100 μM glutamate (FIG. 15C).

Test [2] deals with human fetal sphere-derived SGCs. Description: Live Ca2+ imaging in human fetal sphere-derived SGCs. Type of test: cell-based.
Description: as §1

Description for C57Bl/6 ANPGs: (C) C57Bl/6 ANPGs were plated at 10,000 cells/well of a 96 well plate and treated with the WNT agonist (CHIR99021; 3 μM) and the above mentioned compounds (B) for 30 days. Graph representing the average growth (% ANPGs cultured in presence of GF+CHIR) after 30 days. […] Data represent the average±SEM of three independent experiments.
C57Bl/6 ANPGs were plated at 10,000 cells/well of a 96 well plate and treated with the WNT agonist (CHIR99021; 3 μM) and various modulator(s).
Description for C57Bl/6 otic progenitors: C57Bl/6 otic progenitors were plated at 10,000 cells/well of a 96 well plate and treated with WNT agonist (CHIR99021; 3 μM) and the above mentioned compounds for 30 days. (A) Graph representing the average growth (% otic progenitors cultured in presence of GF+CHIR) after 30 days. […] Data represent the average±SEM of three independent experiments.
For reprogramming stemness of auditory hair cells, C57Bl/6 otic progenitors were plated at 10,000 cells/well of a 96 well plate and treated with WNT agonist (CHIR99021; 3 μM) and the above mentioned compounds for 30 days.

Regarding `COc1cc(-c2cc(-c3cccc(O)c3)cnc2N)cc(OC)c1OC` [compound 48, K02288], the “stemness reprogramming, average growth (% ANPGs cultured in presence of GF+CHIR)” value in the test on C57Bl/6 ANPGs is reported as “hits”.
On to `COc1cc(-c2cc(-c3ccc(N4CCNCC4)cc3)cnc2C)cc(OC)c1OC` [compound 51, LDN-214117], for which the “stemness reprogramming, average growth (% otic progenitors cultured in presence of GF+CHIR)” value with C57Bl/6 otic progenitors is reported as “particularly good candidates”.
Regarding `C=C(C)[C@H]1CN[C@H](C(=O)O)[C@H]1CC(=O)O` [kainate], the “Evoked Ca2+ transients” value in test [1] and in test [2] was “did not respond” each time. For the same molecule, the “Induction of Ca2+ transients” value in the test with phoenix auditory neurons is “failed to induce Ca2+ excitatory transmission”; with phoenix auditory neurons (listed as Kainate) it was “no effect”.
